Results published in the NIST ThermoML archive (doi:10.1016/j.jct.2005.03.015).

Assay: mn = molality of the nth substance listed, in mol/kg
Details: 298.15 K, 101 kPa, Liquid

NCC(=O)O [2-aminoacetic acid] + O
Details | mass density [kg/m3]
m1 = 0.0988 | 1000.19
m1 = 0.1509 | 1001.82
m1 = 0.2033 | 1003.44
m1 = 0.2463 | 1004.78
m1 = 0.2996 | 1006.4
m1 = 0.3513 | 1007.96
m1 = 0.4037 | 1009.55
m1 = 0.4497 | 1010.94

NC(CO)C(=O)O (stereo not drawn) [(.+-.)-serine] + O
Details | mass density [kg/m3]
m1 = 0.02628 | 998.22
m1 = 0.04948 | 999.26
m1 = 0.07419 | 1000.35
m1 = 0.1008 | 1001.52
m1 = 0.1252 | 1002.6
m1 = 0.1509 | 1003.72
m1 = 0.1753 | 1004.76
m1 = 0.2009 | 1005.86

C[C@H](N)C(=O)O [(S)-2-aminopropanoic acid] + O
Details | mass density [kg/m3]
m1 = 0.1065 | 1000.07
m1 = 0.1518 | 1001.34
m1 = 0.2006 | 1002.71
m1 = 0.2568 | 1004.27
m1 = 0.3059 | 1005.52
m1 = 0.359 | 1007.03
m1 = 0.4066 | 1008.35
m1 = 0.4555 | 1009.54

C[C@@H](O)[C@H](N)C(=O)O [DL-threonine] + O
Details | mass density [kg/m3]
m1 = 0.0246 | 998.08
m1 = 0.0494 | 999.12
m1 = 0.07575 | 1000.22
m1 = 0.1002 | 1001.23
m1 = 0.1256 | 1002.28
m1 = 0.1499 | 1003.28
m1 = 0.1751 | 1004.31
m1 = 0.2001 | 1005.33

N[C@@H](Cc1c[nH]cn1)C(=O)O [L-histidine] + O
Details | mass density [kg/m3]
m1 = 0.02223 | 998.29
m1 = 0.04995 | 999.84
m1 = 0.07431 | 1001.19
m1 = 0.099 | 1002.56
m1 = 0.1232 | 1003.87
m1 = 0.1428 | 1004.92
m1 = 0.1834 | 1007.13
m1 = 0.2013 | 1008.08

NCC(=O)NCC(=O)O [glycylglycine] + O
Details | mass density [kg/m3]
m1 = 0.02426 | 998.39
m1 = 0.05026 | 999.84
m1 = 0.07538 | 1001.22
m1 = 0.0999 | 1002.54
m1 = 0.1253 | 1003.95
m1 = 0.1482 | 1005.2
m1 = 0.1746 | 1006.63
m1 = 0.1974 | 1007.84
